In ChEMBL document CHEMBL6153100, “Controlins I-X, Resin Glycosides from the Seeds of Convolvulus tricolor and Their Biological Activities” (J Nat Prod, 2025):
Activity calls are given as the source filed them. No cut-off for these calls is given here.

Experiments:
BV-2 = assay: Antineuroinflammatory activity in LPS-induced mouse BV-2 microglial cells assessed as inhibition of nitric oxide production incubated for 24 hrs by Griess reagent assay; assay type: functional, cell-based; settings: BV-2, 24 h
PC-12 = assay: Neuroprotective activity in H2O2-induced oxidative damage in rat PC12 cells assessed as increase in cell survival rate at 1 to 10 uM pre-incubated for 2 hrs followed by H2O2 addition and measured after 24 hrs by MTT assay; assay type: functional, cell-based; settings: dose 1-10 µM, time 26.0 hrs
Caenorhabditis elegans = assay: Anti-alzheimer activity in transgenic Caenorhabditis elegans UM0001 expressing Amyloid-beta/Tau assessed as decrease in dyskinesia measured for 30 mins by basal slowing response assay; assay type: functional, organism-based; settings: dose 1-4 µM

Compound	IC50 (BV-2)	Activity (PC-12)	Activity (Caenorhabditis elegans)
C/C=C(\C)C(=O)OC[C@H]1O[C@@H](O[C@H]2[C@H](O)[C@@H](COC(=O)[C@H](C)[C@@H](C)O)O[C@@H](O[C@H]3[C@H](O[C@@H](CCCC)CCCCCCCCCCC(=O)OC)O[C@H](CO[C@@H]4O[C@@H](C)[C@H](O)[C@@H](O)[C@H]4O)[C@@H](O)[C@@H]3O)[C@@H]2O[C@@H]2O[C@@H](C)[C@H](OC(=O)[C@H](C)[C@@H](C)OC(=O)[C@H](C)[C@@H](C)O[C@@H]3O[C@H](C)[C@@H](O)[C@H](O)[C@H]3O)[C@@H](O[C@@H]3O[C@H](CO)[C@@H](O)[C@H](O)[C@H]3O)[C@H]2O)[C@H](O)[C@@H](O[C@@H]2O[C@H](CO)[C@@H](O)[C@H](O)[C@H]2O)[C@@H]1O	–	Active	Dose-dependent-effect
CCCC[C@@H](CCCCCCCCCCC(=O)C=O)O[C@@H]1O[C@H](CO[C@H]2O[C@H](C)[C@@H](O)[C@@H](O)[C@H]2O)[C@@H](O)[C@H](O)[C@H]1O[C@@H]1O[C@H](CO)[C@@H](O)[C@H](O[C@@H]2O[C@H](CO)[C@@H](O)[C@H](O)[C@H]2O)[C@H]1O[C@@H]1O[C@@H](C)[C@H](OC(=O)[C@H](C)[C@@H](C)OC(=O)[C@H](C)[C@@H](C)O[C@@H]2O[C@H](C)[C@@H](O)[C@H](O)[C@H]2O[C@@H]2O[C@H](CO)[C@@H](O)[C@H](O)[C@H]2O)[C@@H](O[C@@H]2O[C@H](CO)[C@@H](O)[C@H](O)[C@H]2O)[C@H]1O	–	Active	–
C/C=C(\C)C(=O)OC[C@H]1O[C@@H](O[C@H]2[C@H](O)[C@@H](COC(=O)[C@H](C)[C@@H](C)O)O[C@@H](O[C@H]3[C@H](O[C@@H](CCCC)CCCCCCCCCCC(=O)OC)O[C@H](CO[C@@H]4O[C@H](C)[C@H](O)[C@H](O)[C@H]4O)[C@@H](O)[C@@H]3O)[C@@H]2O[C@@H]2O[C@@H](C)[C@H](OC(=O)[C@H](C)[C@@H](C)OC(=O)[C@H](C)[C@@H](C)O[C@@H]3O[C@H](C)[C@@H](O)[C@H](O)[C@H]3O)[C@@H](O[C@@H]3O[C@H](CO)[C@@H](O)[C@H](O)[C@H]3O)[C@H]2O)[C@H](O)[C@@H](O[C@@H]2O[C@H](CO)[C@@H](O)[C@H](O)[C@H]2O)[C@@H]1O	6.73 µM	–	Dose-dependent-effect

More lines, main results first:

IC50 (BV-2)	Compound	Activity (PC-12)	Activity (Caenorhabditis elegans)
9.7 µM	C/C=C(\C)C(=O)OC[C@H]1O[C@@H](O[C@H]2[C@H](O)[C@@H](CO)O[C@@H](O[C@H]3[C@H](O[C@@H](CCCC)CCCCCCCCCCC(=O)OC)O[C@H](CO[C@@H]4O[C@H](C)[C@H](O)[C@H](O)[C@H]4O)[C@@H](O)[C@@H]3O)[C@@H]2O[C@@H]2O[C@@H](C)[C@H](OC(=O)[C@H](C)[C@@H](C)OC(=O)[C@H](C)[C@@H](C)O[C@@H]3O[C@H](C)[C@@H](O)[C@H](O)[C@H]3O)[C@@H](O[C@@H]3O[C@H](CO)[C@@H](O)[C@H](O)[C@H]3O)[C@H]2O)[C@H](O)[C@@H](O)[C@@H]1O	–	–
19.1 µM	C/C=C(\C)C(=O)OC[C@H]1O[C@@H](O[C@H]2[C@H](O)[C@@H](CO)O[C@@H](O[C@H]3[C@H](O[C@@H](CCCC)CCCCCCCCCCC(=O)OC)O[C@H](CO[C@@H]4O[C@H](C)[C@H](O)[C@H](O)[C@H]4O)[C@@H](O)[C@@H]3O)[C@@H]2O[C@@H]2O[C@@H](C)[C@H](OC(=O)[C@H](C)[C@@H](C)OC(=O)[C@H](C)[C@@H](C)O[C@@H]3O[C@H](C)[C@@H](O)[C@H](O)[C@H]3O)[C@@H](O[C@@H]3O[C@H](CO)[C@@H](O)[C@H](O)[C@H]3O)[C@H]2O)[C@H](O)[C@@H](O[C@@H]2O[C@H](CO)[C@@H](O)[C@H](O)[C@H]2O)[C@@H]1O	Active	–
